Data on 12 compounds can be found in patent US8691865B2 (AbbVie Inc., priority 2008, dated 2014).

Sequence of human Cav2.2 (Q00975 whole entry): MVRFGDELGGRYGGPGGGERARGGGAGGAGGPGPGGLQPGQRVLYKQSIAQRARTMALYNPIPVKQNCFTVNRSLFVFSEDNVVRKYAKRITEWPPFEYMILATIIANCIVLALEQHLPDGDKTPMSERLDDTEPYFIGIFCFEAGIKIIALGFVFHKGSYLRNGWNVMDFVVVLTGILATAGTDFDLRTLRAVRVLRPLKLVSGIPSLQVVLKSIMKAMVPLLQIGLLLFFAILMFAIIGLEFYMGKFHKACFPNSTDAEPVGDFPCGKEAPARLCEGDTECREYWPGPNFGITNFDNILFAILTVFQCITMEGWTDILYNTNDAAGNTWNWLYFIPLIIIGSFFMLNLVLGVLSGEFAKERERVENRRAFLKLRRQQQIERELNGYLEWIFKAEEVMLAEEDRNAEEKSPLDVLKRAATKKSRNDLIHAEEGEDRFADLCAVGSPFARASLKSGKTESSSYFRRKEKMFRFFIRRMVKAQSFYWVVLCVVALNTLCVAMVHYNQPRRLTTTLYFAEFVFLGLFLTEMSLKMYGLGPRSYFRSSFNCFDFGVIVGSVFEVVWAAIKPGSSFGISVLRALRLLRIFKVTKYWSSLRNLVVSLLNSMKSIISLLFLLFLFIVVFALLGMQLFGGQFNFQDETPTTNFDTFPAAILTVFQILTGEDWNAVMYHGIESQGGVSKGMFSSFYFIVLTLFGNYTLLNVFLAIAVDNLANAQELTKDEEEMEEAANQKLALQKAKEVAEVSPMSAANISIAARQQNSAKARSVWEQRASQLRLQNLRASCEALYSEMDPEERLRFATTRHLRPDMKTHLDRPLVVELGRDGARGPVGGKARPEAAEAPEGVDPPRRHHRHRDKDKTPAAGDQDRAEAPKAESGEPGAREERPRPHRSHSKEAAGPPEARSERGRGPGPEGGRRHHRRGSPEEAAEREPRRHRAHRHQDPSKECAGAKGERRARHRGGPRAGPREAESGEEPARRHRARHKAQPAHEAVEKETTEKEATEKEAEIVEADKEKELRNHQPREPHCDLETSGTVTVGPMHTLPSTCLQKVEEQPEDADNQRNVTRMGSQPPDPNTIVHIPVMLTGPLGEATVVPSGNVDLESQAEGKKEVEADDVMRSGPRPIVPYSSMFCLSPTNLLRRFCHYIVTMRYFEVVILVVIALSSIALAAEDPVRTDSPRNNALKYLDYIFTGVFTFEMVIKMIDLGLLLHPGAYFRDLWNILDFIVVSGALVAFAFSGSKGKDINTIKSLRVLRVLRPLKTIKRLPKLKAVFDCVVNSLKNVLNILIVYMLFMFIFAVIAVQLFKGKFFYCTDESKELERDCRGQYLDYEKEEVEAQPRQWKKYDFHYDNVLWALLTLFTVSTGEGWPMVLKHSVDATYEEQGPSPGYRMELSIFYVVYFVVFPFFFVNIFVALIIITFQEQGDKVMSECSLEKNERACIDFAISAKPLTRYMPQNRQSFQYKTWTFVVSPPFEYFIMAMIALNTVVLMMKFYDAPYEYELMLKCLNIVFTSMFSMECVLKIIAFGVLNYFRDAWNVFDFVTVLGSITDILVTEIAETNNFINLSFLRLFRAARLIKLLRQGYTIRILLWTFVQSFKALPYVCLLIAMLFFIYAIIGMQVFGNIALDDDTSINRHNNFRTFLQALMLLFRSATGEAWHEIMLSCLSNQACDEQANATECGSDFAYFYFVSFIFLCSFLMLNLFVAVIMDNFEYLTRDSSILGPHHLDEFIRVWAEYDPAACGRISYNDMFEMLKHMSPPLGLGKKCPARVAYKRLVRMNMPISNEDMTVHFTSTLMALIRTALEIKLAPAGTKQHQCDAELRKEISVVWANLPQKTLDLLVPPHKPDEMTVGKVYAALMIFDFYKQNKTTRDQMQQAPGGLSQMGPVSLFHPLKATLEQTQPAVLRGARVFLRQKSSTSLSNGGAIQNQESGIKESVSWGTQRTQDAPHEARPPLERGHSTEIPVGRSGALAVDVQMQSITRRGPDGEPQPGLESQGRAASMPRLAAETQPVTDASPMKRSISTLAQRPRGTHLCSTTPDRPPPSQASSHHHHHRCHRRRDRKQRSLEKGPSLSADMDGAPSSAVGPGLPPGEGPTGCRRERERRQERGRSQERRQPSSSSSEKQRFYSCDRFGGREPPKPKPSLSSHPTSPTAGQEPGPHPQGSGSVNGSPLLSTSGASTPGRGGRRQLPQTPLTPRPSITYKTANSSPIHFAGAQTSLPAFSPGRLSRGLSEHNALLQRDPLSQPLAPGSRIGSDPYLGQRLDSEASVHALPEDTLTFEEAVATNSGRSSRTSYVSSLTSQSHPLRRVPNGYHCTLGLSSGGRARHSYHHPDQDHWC
Sequence of human Cav2.2 (P54289 25-956 partner limits assumed): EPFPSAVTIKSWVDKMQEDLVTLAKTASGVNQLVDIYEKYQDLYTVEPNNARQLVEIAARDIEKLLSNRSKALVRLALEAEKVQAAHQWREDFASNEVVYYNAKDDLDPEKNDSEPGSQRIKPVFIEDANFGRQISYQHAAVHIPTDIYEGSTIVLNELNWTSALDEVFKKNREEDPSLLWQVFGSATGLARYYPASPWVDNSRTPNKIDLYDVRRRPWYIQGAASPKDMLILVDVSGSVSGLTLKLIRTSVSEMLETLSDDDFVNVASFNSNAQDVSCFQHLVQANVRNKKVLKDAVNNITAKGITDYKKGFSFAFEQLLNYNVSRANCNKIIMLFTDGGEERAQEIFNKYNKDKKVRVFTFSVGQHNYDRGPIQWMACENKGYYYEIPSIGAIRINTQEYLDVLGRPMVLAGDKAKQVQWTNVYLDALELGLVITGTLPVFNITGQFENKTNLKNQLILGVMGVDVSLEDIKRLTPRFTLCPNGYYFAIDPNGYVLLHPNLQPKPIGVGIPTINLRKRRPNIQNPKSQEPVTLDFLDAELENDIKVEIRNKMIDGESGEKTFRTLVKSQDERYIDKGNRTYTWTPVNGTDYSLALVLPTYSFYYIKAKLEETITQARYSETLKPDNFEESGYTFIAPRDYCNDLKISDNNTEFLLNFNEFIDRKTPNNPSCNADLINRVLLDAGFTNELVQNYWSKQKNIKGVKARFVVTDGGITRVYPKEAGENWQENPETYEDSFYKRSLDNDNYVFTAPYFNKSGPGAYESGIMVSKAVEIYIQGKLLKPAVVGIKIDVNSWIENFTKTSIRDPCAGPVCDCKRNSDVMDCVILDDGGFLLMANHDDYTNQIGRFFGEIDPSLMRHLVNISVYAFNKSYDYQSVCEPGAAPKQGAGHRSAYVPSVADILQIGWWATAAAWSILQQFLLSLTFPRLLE
Sequence of human Cav2.2 (P54289 957-1103 partner limits assumed): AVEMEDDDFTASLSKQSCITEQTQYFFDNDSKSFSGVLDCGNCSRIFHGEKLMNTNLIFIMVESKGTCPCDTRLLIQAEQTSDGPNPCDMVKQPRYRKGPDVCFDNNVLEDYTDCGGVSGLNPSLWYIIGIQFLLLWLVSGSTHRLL
Sequence of human Cav2.2 (P54284 whole entry partner): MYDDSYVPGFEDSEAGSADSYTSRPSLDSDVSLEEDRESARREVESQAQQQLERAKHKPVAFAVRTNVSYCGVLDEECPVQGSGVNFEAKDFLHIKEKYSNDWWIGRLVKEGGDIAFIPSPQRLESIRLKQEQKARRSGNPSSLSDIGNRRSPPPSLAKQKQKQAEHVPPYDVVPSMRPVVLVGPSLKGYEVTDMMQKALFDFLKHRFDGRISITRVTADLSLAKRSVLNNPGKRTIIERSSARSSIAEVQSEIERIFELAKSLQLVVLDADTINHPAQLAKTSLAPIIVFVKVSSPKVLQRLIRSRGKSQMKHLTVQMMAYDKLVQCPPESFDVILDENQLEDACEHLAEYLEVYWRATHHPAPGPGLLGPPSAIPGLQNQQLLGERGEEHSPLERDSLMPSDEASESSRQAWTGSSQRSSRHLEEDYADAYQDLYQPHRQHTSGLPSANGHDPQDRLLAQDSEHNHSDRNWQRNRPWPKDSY

The first test addresses human Cav2.2 (Homo sapiens, UniProt Q00975). Kind of test: Assessment of calcium channel activity using FLIPR (Ca2+ influx in IMR32 cells). The test is classed as cell-based.
Conditions: not given
In short, it runs like this: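 IC50 values derive from nonlinear sigmoidal fitting of percent inhibition, relative to inhibitor-free activity, of Ca2+ influx read by FLIPR. Cells were IMR32 human neuroblastoma, plated at 1−1.2×10^5 per well and grown 48 h at 37 °C.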
`CN[C@@H](CC(C)C)C(=O)N[C@H]1CC[C@@H]2CN(c3ccc(SC(F)(F)F)cc3)C[C@@H]21` [Example 707, N^2-methyl-N-[(3aR,4S,6aS)-2-{4-[(trifluoromethyl)thio]phenyl}octahydrocyclopenta[c]pyrrol-4-yl]-L-leucinamide]: the IC50 (commonly the midpoint of a concentration-inhibition curve) is 7.26 µM.
Same read-out and setting: the value for `FC(F)(F)c1cccc(N2C[C@H]3CC[C@H](NCc4cc5ccccc5[nH]4)[C@H]3C2)n1` [Example 612, (3aR,4S,6aS)-N-(1H-indol-2-ylmethyl)-2-[6-(trifluoromethyl)pyridin-2-yl]octahydrocyclopenta[c]pyrrol-4-amine] was 2.24 µM; that for `O=C(CC(O)C(F)(F)F)N[C@H]1CC[C@@H]2CN(c3cccc(C(F)(F)F)n3)C[C@@H]21` (stereo partly drawn) [Example 586, 4,4,4-trifluoro-3-hydroxy-N-{(3aR,4S,6aS)-2-[6-(trifluoromethyl)pyridin-2-yl]octahydrocyclopenta[c]pyrrol-4-yl}butanamide] was 2.56 µM.
Consider `FC(F)(F)c1cccc(N2C[C@H]3CC[C@H](NCc4coc(-c5ccc(Cl)cc5)n4)[C@H]3C2)n1` [Example 741, (3aR,4S,6aS)-N-{[2-(4-chlorophenyl)-1,3-oxazol-4-yl]methyl}-2-[6-(trifluoromethyl)pyridin-2-yl]octahydrocyclopenta[c]pyrrol-4-amine], for which the IC50 was found to be 1.16 µM.
The same measure, in the same setting: the value for `CN[C@@H](CC(C)C)C(=O)N[C@H]1CC[C@@H]2CN(c3ccc(C)cc3)C[C@@H]21` [Example 648, N^2-methyl-N-[(3aR,4S,6aS)-2-(4-methylphenyl)octahydrocyclopenta[c]pyrrol-4-yl]-L-leucinamide] was 3.55 µM.
Still for that read-out and setting: the value for `FC(F)(F)c1cccc(N2C[C@H]3CC[C@H](NCc4c[nH]nn4)[C@H]3C2)n1` [Example 694, (3aR,4S,6aS)-N-(1H-1,2,3-triazol-4-ylmethyl)-2-[6-(trifluoromethyl)pyridin-2-yl]octahydrocyclopenta[c]pyrrol-4-amine] was 4 µM; that for `CN[C@@H](CC(C)C)C(=O)N[C@H]1CC[C@@H]2CN(c3cccc(C#N)c3)C[C@@H]21` [Example 646, N-[(3aR,4S,6aS)-2-(3-cyanophenyl)octahydrocyclopenta[c]pyrrol-4-yl]-N^2-methyl-L-leucinamide] was 2.16 µM.
Still for that read-out and setting: the value for `Fc1ccc2[nH]c(CN[C@H]3CC[C@@H]4CN(c5cccc(C(F)(F)F)c5)C[C@@H]43)cc2c1` [Example 616, (3aR,4S,6aS)-N-[(5-fluoro-1H-indol-2-yl)methyl]-2-[3-(trifluoromethyl)phenyl]octahydrocyclopenta[c]pyrrol-4-amine] was 4.22 µM.

Still in this test, the particulars now being: read-out: IC50 (μM) or percent inhibition (* indicates 3 minute incubation, otherwise 60 minute); IC50; 60 minute pre-incubation with compound; IMR32 cells, 80 mM KCl depolarization.
On to `CN[C@@H](CC(C)C)C(=O)N[C@H]1CC[C@@H]2CN(Cc3cccc(C(F)(F)F)c3)C[C@@H]21` [Example 379, N^2-methyl-N^1-{(3aR,4S,6aS)-2-[3-(trifluoromethyl)benzyl]octahydrocyclopenta[c]pyrrol-4-yl}-L-leucinamide], for which the IC50 is 8.6 µM.
Regarding `CC[C@H](C(=O)N[C@H]1CC[C@@H]2CN(Cc3ccccc3)C[C@@H]21)c1ccccc1` [Example 33, (2S)-N-[(3aR,4S,6aS)-2-benzyloctahydrocyclopenta[c]pyrrol-4-yl]-2-phenylbutanamide], the IC50 worked out at 7.41 µM.
Regarding `CC(C)C(C(=O)N[C@H]1CC[C@@H]2CN(CCCCCC(c3ccc(F)cc3)c3ccc(F)cc3)C[C@@H]21)c1ccccc1` (stereo partly drawn) [Example 107, N-{(3aR,4S,6aS)-2-[6,6-bis(4-fluorophenyl)hexyl]octahydrocyclopenta[c]pyrrol-4-yl}-3-methyl-2-phenylbutanamide], the IC50 was found to be 1.14 µM.
As to `CN[C@H](CC(C)C)C(=O)N[C@@H]1CC[C@H]2CN(Cc3cccc(C(F)(F)F)c3)C[C@H]21` (relative stereo) [Example 163, N^2-methyl-N^1-{(3aS*,4R*,6aR*)-2-[3-(trifluoromethyl)benzyl]octahydrocyclopenta[c]pyrrol-4-yl}-D-leucinamide], the IC50 turned out to be 4.59 µM.
